The experiment concerns UPR adaptive arm reporter cells, luciferase luminescence. Nature of the experiment: adaptive unfolded protein response reporter activation – cell-based, luciferase luminescence, dose response (AID 489032).

Active and inactive are the calls of the source. No rule for the calls is given here.

By EC50 is commonly meant the concentration at which the effect is half-maximal.

As for `CC1CCC(C(C)C)C(OC(=O)Cn2c(-c3ccc(Cl)cc3)[n+](C)c3ccccc32)C1` (centres undefined), the EC50 was > 80 µM (inactive).
On to `CCOc1cc(/C=C2/C(=N)N3C=CSC3=NC2=O)ccc1OCCCOc1ccccc1C`, for which the EC50 is > 80 µM (inactive).
Regarding `O=C(/C=C/c1ccccc1)c1ccccc1O`, the EC50 was > 80 µM (inactive).
Under `Cc1ccc(-n2nc3c(N4CCC(C(=O)NCCc5ccccc5C)CC4)nnc(C)c3c2C)cc1` stands > 80 µM (inactive).

For the origin of these results see PubChem BioAssay AID489032 (Sanford-Burnham Center for Chemical Genomics, 2010).
